Assay results taken from ChEMBL document CHEMBL1127508, “Conformationally restricted competitive antagonists of human/rat corticotropin-releasing factor” (J Med Chem, 1994).

Assays:
[1] = target: T1, Corticotropin-releasing factor receptor 1 (Rattus norvegicus) (UniProt P35353); experiment: Relative antagonistic potency in vitro measuring alteration of CRF-induced release of ACTH by rat anterior pituitary cells in culture; type: functional, cell-based; details: Pituitary gland cell
T1 sequence (whole entry): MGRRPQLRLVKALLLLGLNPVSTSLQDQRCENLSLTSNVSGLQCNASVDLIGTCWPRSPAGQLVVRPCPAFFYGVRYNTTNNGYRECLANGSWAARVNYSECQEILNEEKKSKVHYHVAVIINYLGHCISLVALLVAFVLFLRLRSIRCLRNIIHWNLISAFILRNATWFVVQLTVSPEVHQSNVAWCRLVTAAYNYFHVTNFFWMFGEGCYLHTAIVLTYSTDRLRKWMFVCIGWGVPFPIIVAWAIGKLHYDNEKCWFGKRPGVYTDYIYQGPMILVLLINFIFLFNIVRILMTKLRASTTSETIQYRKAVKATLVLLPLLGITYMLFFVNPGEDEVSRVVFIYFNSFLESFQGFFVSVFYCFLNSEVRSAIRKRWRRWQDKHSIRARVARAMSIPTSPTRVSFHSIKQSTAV

[2] = target: T1, Corticotropin-releasing factor receptor 1 (Rattus norvegicus); experiment: Intrinsic activity in ACTH release assay as percent CRF response; type: functional

SMILES	Activity [1]	Intrinsic activity [2]
CCCC[C@H](NC(=O)[C@@H]1CCC(=O)NCCCC[C@H](NC(=O)[C@H](CCCN=C(N)N)NC(=O)[C@H](CC(C)C)NC(=O)[C@H](CC(C)C)NC(=O)[C@H](Cc2c[nH]cn2)NC(=O)[C@H](N)Cc2ccccc2)C(=O)N[C@@H](C(C)C)C(=O)N[C@@H](CC(C)C)C(=O)N1)C(=O)N[C@@H](C)C(=O)N[C@@H](CCCN=C(N)N)C(=O)N[C@@H](C)C(=O)N[C@@H](CCC(=O)O)C(=O)N[C@@H](CCC(N)=O)C(=O)N[C@@H](CC(C)C)C(=O)N[C@@H](C)C(=O)N[C@@H](CCC(N)=O)C(=O)N[C@@H](CCC(N)=O)C(=O)N[C@@H](C)C(=O)N[C@@H](Cc1c[nH]cn1)C(=O)N[C@@H](CO)C(=O)N[C@@H](CC(N)=O)C(=O)N[C@@H](CCCN=C(N)N)C(=O)N[C@@H](CCCCN)C(=O)N[C@@H](CC(C)C)C(=O)N[C@@H](CCCC)C(=O)N[C@@H](CCC(=O)O)C(=O)N[C@H](C(=O)N[C@H](C(=O)C(N)=O)[C@@H](C)CC)[C@@H](C)CC	0.02	3
CCCC[C@H](NC(=O)[C@H](CC(C)C)NC(=O)[C@H](CCCCN)NC(=O)[C@H](CCCN=C(N)N)NC(=O)[C@H](CC(N)=O)NC(=O)[C@H](CO)NC(=O)[C@H](Cc1c[nH]cn1)NC(=O)[C@H](C)NC(=O)[C@H](CCC(N)=O)NC(=O)[C@H](CCC(N)=O)NC(=O)[C@H](C)NC(=O)[C@H](CC(C)C)NC(=O)[C@H](CCC(N)=O)NC(=O)[C@H](CCC(=O)O)NC(=O)[C@H](C)NC(=O)[C@H](CCCN=C(N)N)NC(=O)[C@H](C)NC(=O)[C@H](CCCC)NC(=O)[C@H]1CC(=O)NCCC[C@H](NC(=O)[C@H](CC(C)C)NC(=O)[C@H](CC(C)C)NC(=O)[C@H](Cc2c[nH]cn2)NC(=O)[C@H](N)Cc2ccccc2)C(=O)N[C@@H](CCC(=O)O)C(=O)N[C@@H](C(C)C)C(=O)N[C@@H](CC(C)C)C(=O)N1)C(=O)N[C@@H](CCC(=O)O)C(=O)N[C@H](C(=O)N[C@H](C(=O)C(N)=O)[C@@H](C)CC)[C@@H](C)CC	0.006	–
CCCC[C@H](NC(=O)[C@H](CC(C)C)NC(=O)[C@H](CCCCN)NC(=O)[C@H](CCCN=C(N)N)NC(=O)[C@H](CC(N)=O)NC(=O)[C@H](CO)NC(=O)[C@H](Cc1c[nH]cn1)NC(=O)[C@H](C)NC(=O)[C@H](CCC(N)=O)NC(=O)[C@H](CCC(N)=O)NC(=O)[C@H](C)NC(=O)[C@H](CC(C)C)NC(=O)[C@H](CCC(N)=O)NC(=O)[C@H](CCC(=O)O)NC(=O)[C@H](C)NC(=O)[C@H](CCCN=C(N)N)NC(=O)[C@H](C)NC(=O)[C@H](CCCC)NC(=O)[C@H]1CCC(=O)NCCCC[C@H](NC(=O)[C@H](CCCN=C(N)N)NC(=O)[C@H](CC(C)C)NC(=O)[C@H](CC(C)C)NC(=O)[C@H](Cc2c[nH]cn2)NC(=O)[C@H](N)Cc2ccccc2)C(=O)N[C@@H](C(C)C)C(=O)N[C@@H](CC(C)C)C(=O)N1)C(=O)N[C@@H](CCC(=O)O)C(=O)N[C@H](C(=O)N[C@H](C(=O)C(N)=O)[C@@H](C)CC)[C@@H](C)CC	< 0.001	23
CCCC[C@H](NC(=O)[C@@H]1CC(=O)NCCC[C@H](NC(=O)[C@H](CC(C)C)NC(=O)[C@H](CC(C)C)NC(=O)[C@H](Cc2c[nH]cn2)NC(=O)[C@H](N)Cc2ccccc2)C(=O)N[C@@H](CCC(=O)O)C(=O)N[C@@H](C(C)C)C(=O)N[C@@H](CC(C)C)C(=O)N1)C(=O)N[C@@H](C)C(=O)N[C@@H](CCCN=C(N)N)C(=O)N[C@@H](C)C(=O)N[C@@H](CCC(=O)O)C(=O)N[C@@H](CCC(N)=O)C(=O)N[C@@H](CC(C)C)C(=O)N[C@@H](C)C(=O)N[C@@H](CCC(N)=O)C(=O)N[C@@H](CCC(N)=O)C(=O)N[C@@H](C)C(=O)N[C@@H](Cc1c[nH]cn1)C(=O)N[C@@H](CO)C(=O)N[C@@H](CC(N)=O)C(=O)N[C@@H](CCCN=C(N)N)C(=O)N[C@@H](CCCCN)C(=O)N[C@@H](CC(C)C)C(=O)N[C@@H](CCCC)C(=O)N[C@@H](CCC(=O)O)C(=O)N[C@H](C(=O)N[C@H](C(=O)C(N)=O)[C@@H](C)CC)[C@@H](C)CC	0.001	2
